The text below walks through data of the supplement of paper PMC3493320.

The structures appear in SMILES notation.

By IC50 is commonly meant the midpoint of a concentration-inhibition curve. A higher IC50 goes with weaker potency.

The test system of the assay is NCI-H295R. Put plainly: IC50 (antiproliferative, ATP content). The note with it: 48 h. In short, it runs like this: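 Adrenocortical carcinoma cells (1500 per well) were seeded in serum-free ITS-supplemented DMEM in 1536-well plates and cultured overnight. Library compounds were then pin-transferred at 8 final concentrations from 0.6 nM to 46 µM, and plates were kept 48 h at 37 °C, 5% CO2. ATP was read as CellTiter-Glo luminescence after 20 min at room temperature and normalised to vehicle (0%) and positive control (100% inhibition). IC50 came from four-parameter logistic fits; compounds with no concentration response were recorded as above the top dose.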
Take `Oc1ccc2c3c1O[C@H]1[C@@H](O)CC[C@@]4(O)[C@@H](C2)N(CC2CCC2)CC[C@]314`: the IC50 was greater than 46 µM.
The same measure for `CC(=O)NS(=O)(=O)c1ccc(N)cc1`: greater than 46 µM; for `Cc1cc(O)c(C(C)C)cc1Cl`: greater than 46 µM.
The same measure for `COc1ccc(/C=C/C(=O)Nc2ccccc2C(=O)O)cc1OC`: greater than 46 µM; for `COc1cc(C(=O)N2CCOCC2)cc(OC)c1OC`: greater than 46 µM.
The same measure for `CCC1(c2ccccc2)C(=O)NC(=O)N(C)C1=O` (stereo unspecified): greater than 46 µM.
For the compound `O=S(=O)(O)c1cc(I)c(O)c2ncccc12`, the IC50 was greater than 46 µM.
Regarding `CC(=O)O[C@H]1CC[C@H]2[C@@H]3CCC4=CC(=O)CCC4=C3C=C[C@]12C`, the IC50 was greater than 46 µM.
The value for `COc1cc(O)c(C(=O)c2ccccc2)cc1S(=O)(=O)O` was greater than 46 µM; that for `NCCN` was greater than 46 µM.
The value for `CC(=O)O[C@@H]3C\C4=C\C[C@@H]2[C@H](CC[C@]1(C)C(=O)CC[C@H]12)[C@@]4(C)CC3` was greater than 46 µM.
The same measure for `CN1CCc2c(c3ccccc3n2Cc2ccccc2)C1.CN1CCc2c(c3ccccc3n2Cc2ccccc2)C1.O=S(=O)(O)c1cccc2c(S(=O)(=O)O)cccc12`: greater than 46 µM; for `OCCN(CCO)c1nc(N2CCCCC2)c2nc(N(CCO)CCO)nc(N3CCCCC3)c2n1`: greater than 46 µM; for `CC(=O)N/N=C/c1ccc([N+](=O)[O-])o1`: greater than 46 µM.
In turn, `O=C(CSC#N)O[C@H]2[C@]1(C)CC[C@H](C2)[C@](C)1C` showed an IC50 greater than 46 µM.
Compound `O=C([O-])[C@H](O)[C@@H](O)[C@H](O)[C@H](O)CO.O=C([O-])[C@H](O)[C@@H](O)[C@H](O)[C@H](O)CO.[Ba+2]` showed an IC50 greater than 46 µM.
The same measure for `O=C3[C@@H]4[C@]([C@](CC6)(C)[C@H]([C@@]5=COC=C5)O3)(O4)[C@@]2(C)[C@@]6([H])[C@@]1(CO7)[C@H](CC7=O)OC(C)(C)[C@@]([H])1CC2=O`: greater than 46 µM; for `Cc1cc(=O)n(-c2ccccc2)n1C`: greater than 46 µM; for `CNC(=O)[C@H](Cc1c[nH]c2ccccc12)NC(=O)[C@@H](CC(=O)NO)CC(C)C`: greater than 46 µM.
The same measure for `C[C@]41/C=C\C(=O)\C=C4\C(=C)C[C@H]2[C@@H]3CCC(=O)[C@@]3(C)CC[C@H]12`: greater than 46 µM.
The compound `C[C@]12CCC(=O)C=C1C=C[C@@H]1[C@@H]2CC[C@@]2(C)[C@H]1CC[C@@]21CCC(=O)O1` returned an IC50 greater than 46 µM.
The same measure for `O=C1C(C(O)=CC(O)=C2)=C2O[C@H]([C@](C=C5)=CC3=C5O[C@H](CO)[C@@H]([C@]4=CC(OC)=C(O)C=C4)O3)[C@H]1O`: greater than 46 µM; for `CC(O)CO` (stereo unspecified): greater than 46 µM; for `Cl.O=C1OC(CN2CCOCC2)CN1N=Cc1ccc([N+](=O)[O-])o1` (stereo unspecified): greater than 46 µM.
The value for `CCCCCCC(=O)CCCCCC/C=C/C[C@@H](O)[C@H](O)[C@@](N)(CO)C(=O)O` was greater than 46 µM.
The value for `CC(C)NCC(O)c1ccc2ccccc2c1` (stereo unspecified) was greater than 46 µM; that for `OB(O)O` was greater than 46 µM; that for `Cl.NCCS` was greater than 46 µM.
For `N[C@@H](Cc1ccc(O)cc1)C(=O)O`, the IC50 is greater than 46 µM.
The value for `CC(=O)OC(C)C[N+](C)(C)C.[Cl-]` (stereo unspecified) was greater than 46 µM; that for `C#CCOC(C(=O)OCCN(C)C)(c1ccccc1)c1ccccc1.Cl` was greater than 46 µM.
`CN1CCC[C@@H]1Cc1c[nH]c2ccc(CCS(=O)(=O)c3ccccc3)cc12` showed a 50% inhibitory concentration (IC50) greater than 46 µM.
The same measure for `CN(CCO)CC(O)Cn1cnc2c1c(=O)n(C)c(=O)n2C.O=C(O)c1cccnc1` (stereo unspecified): greater than 46 µM.
`CN(C)C(=O)C(CCN1CCC(O)(c2ccc(Cl)cc2)CC1)(c1ccccc1)c1ccccc1` returned a half-inhibitory concentration (IC50) greater than 46 µM.
As for `NC(=O)NS(=O)(=O)c1ccc(N)cc1`, the IC50 is greater than 46 µM.
The value for `O=C1CCC(c2ccc(-n3ccnc3)cc2)=NN1` was greater than 46 µM; that for `CN1C(=O)CC[C@H]1c1cccnc1` was greater than 46 µM.
The same measure for `C[N@@+]1([O-])[C@@H]2CC[C@H]1C[C@@H](OC(=O)C(CO)c1ccccc1)C2` (stereo partly specified): greater than 46 µM; for `CC(C)[C@@H]1CC[C@@H](C)C[C@H]1O`: greater than 46 µM.
The same measure for `O=S1(=O)OC(c2ccc(O)cc2)(c2ccc(O)cc2)c2ccccc21`: greater than 46 µM.
As for `O=[C@](O)[C@@H]1[C@@H](CC(O)=O)[C@@H]([C@](C)=C)CN1`, the IC50 is greater than 46 µM.
The same measure for `Cc1cccc(C)c1NC(=O)C(C)N.Cl` (stereo unspecified): greater than 46 µM; for `CCCc1nc(C)c2c(=O)nc(-c3cc(S(=O)(=O)N4CCN(CC)CC4)ccc3OCC)[nH]n12.O=C(O)CC(O)(CC(=O)O)C(=O)O`: greater than 46 µM.
The same measure for `N=C(N)NN.N=C(N)NN.O=S(=O)(O)O`: greater than 46 µM.
`CC(C)COC(=O)OCN1C(=O)CN(CCN2CC(=O)N(COC(=O)OCC(C)C)C(=O)C2)CC1=O` had a half-maximal inhibitory concentration (IC50) greater than 46 µM.
The value for `[C@@]153[C@@H](\C(O)=C(/C[C@@]1([C@H]2CC[C@]4([C@H]([C@@H]2CC3)CC[C@@H]4O)C)C)C#N)O5` was greater than 46 µM; that for `NCCCC(=O)O` was greater than 46 µM; that for `[Br-].O.C[N+]2(C1C[C@H](CC2CC1)OC(=O)C(CO)c3ccccc3)C(C)C` (stereo unspecified) was greater than 46 µM.
The same measure for `CCCNCC(O)COc1ccccc1C(=O)CCc1ccccc1` (stereo unspecified): greater than 46 µM.
The value for `OCC(O)CS` (stereo unspecified) was greater than 46 µM; that for `CCCN(CCC)CCc1cccc2c1CC(=O)N2` was greater than 46 µM.
`NS(=O)(=O)c1cc2c(cc1Cl)NC(Cc1ccccc1)NS2(=O)=O` (stereo unspecified) had an IC50 greater than 46 µM.
The same measure for `ClC(Cl)Cl`: greater than 46 µM; for `CCC(=O)Nc1ccc(O)cc1`: greater than 46 µM; for `C=CCc1ccccc1OCC(O)CNC(C)C` (stereo unspecified): greater than 46 µM.
The same measure for `NS(=O)(=O)c1cc(C(=O)O)c(NCc2ccco2)cc1Cl`: greater than 46 µM; for `CCCCC(CC)COC(=O)C(C#N)=C(c1ccccc1)c1ccccc1` (stereo unspecified): greater than 46 µM; for `CS(=O)(=O)c1ccc([C@@H](O)[C@@H](CO)NC(=O)C(Cl)Cl)cc1`: greater than 46 µM.
The same measure for `COc1ccc(S(=O)(=O)N2c3ccc(Cl)cc3[C@@](O)(c3ccccc3Cl)[C@H]2C(=O)N2CCC[C@@H]2C(N)=O)cc1OC`: greater than 46 µM; for `O=C(C)O[C@@](CC3)([C@](C)=O)[C@]2(C)[C@]3([H])[C@]1([H])C=C(C)C([C@@](CC4)(C)[C@]([H])1CC2)=CC4=O`: greater than 46 µM; for `COc1cc(N)c(Cl)cc1C(=O)NC1CN2CCC1CC2.Cl` (stereo unspecified): greater than 46 µM.
Compound `CCC(=O)O[C@@H]1CC(=O)O[C@H](C)CC=CC=C[C@H](O)[C@H](C)C[C@H](CC=O)[C@H](O[C@@H]2O[C@H](C)[C@@H](O[C@H]3C[C@@](C)(O)[C@@H](OC(=O)CC)[C@H](C)O3)[C@H](N(C)C)[C@H]2O)[C@H]1OC` returned an IC50 greater than 46 µM.
The value for `CC(=O)OC[C@H]1O[C@@](COC(C)=O)(O[C@H]2O[C@H](COC(C)=O)[C@@H](OC(C)=O)[C@H](OC(C)=O)[C@H]2OC(C)=O)[C@@H](OC(C)=O)[C@@H]1OC(C)=O` was greater than 46 µM.
The same measure for `Cn1c(CCCC(=O)O)nc2cc(N(CCCl)CCCl)ccc21`: greater than 46 µM; for `CC(=O)Oc1ccc(C(c2ccc(OC(C)=O)cc2)c2ccccn2)cc1`: greater than 46 µM; for `CC(C)NNC(=O)c1ccncc1.O=S(=O)(O)O`: greater than 46 µM.
The value for `OC(CN1CCC(Cc2ccc(F)cc2)CC1)c1ccc(Cl)cc1` (stereo unspecified) was greater than 46 µM; that for `C=CCN1C(=O)C(CC(C)C)NC1=S` (stereo unspecified) was greater than 46 µM; that for `C=CCNC(N)=S` was greater than 46 µM.
The compound `CO[C@H]1C=CO[C@@]2(C)Oc3c(C)c(O)c4c(c3C2=O)C2=NC3(CCN(CC(C)C)CC3)NC2=C(NC(=O)/C(C)=C\C=C\[C@H](C)[C@H](O)[C@@H](C)[C@@H](O)[C@@H](C)[C@H](OC(C)=O)[C@@H]1C)C4=O` yielded an IC50 greater than 46 µM.
As for `CCC(C(=O)NC(N)=O)c1ccccc1` (stereo unspecified), the IC50 is greater than 46 µM.
The same measure for `c1ccc2ccccc2c1`: greater than 46 µM; for `CN1CCN(C(c2ccccc2)c2ccc(Cl)cc2)CC1.Cl` (stereo unspecified): greater than 46 µM.
The same measure for `N/C1=N/C(=O)N(/C=N1)[C@@H]2O[C@H](CO)[C@@H](O)[C@H]2O`: greater than 46 µM; for `CC(=O)O.N=C(N)NCCC[C@H](NC(=O)[C@@H]1CCCN1C(=O)[C@@H]1CSSC[C@H](N)C(=O)N[C@@H](Cc2ccc(O)cc2)C(=O)N[C@@H](Cc2ccccc2)C(=O)N[C@@H](CCC(N)=O)C(=O)N[C@@H](CC(N)=O)C(=O)N1)C(=O)NCC(N)=O`: greater than 46 µM; for `Nc1c(CC(=O)[O-])cccc1C(=O)c1ccc(Br)cc1.Nc1c(CC(=O)[O-])cccc1C(=O)c1ccc(Br)cc1.O.O.O.[Na+].[Na+]`: greater than 46 µM.
The value for `C=Cc1ccc(S(=O)(=O)[O-])cc1.[Na+]` was greater than 46 µM.
Compound `O=[C@@](OCCl)[C@](CC2)(OC(OCC)=O)[C@]1(C)[C@]2([H])[C@@](CCC3=CC4=O)([H])[C@]([C@](C)3C=C4)([H])[C@@H](O)C1` returned an IC50 greater than 46 µM.
The value for `Cl.NCCO/C=C/[C@H](N)C(=O)O` was greater than 46 µM.
The same measure for `NC(CSCC(=O)O)C(=O)O` (stereo unspecified): greater than 46 µM; for `CCOc1cc(-c2nccc3cc(OC)c(OC)cc23)cc(OCC)c1OCC`: greater than 46 µM; for `CC(C)NC(=N)NC(=N)Nc1ccc(Cl)cc1.Cl`: greater than 46 µM.
The same measure for `NC[C@@H](C1)[C@]1([C@@]2=CC=CC=C2)C(N(CC)CC)=O.Cl`: greater than 46 µM; for `Cc1nc(NS(=O)(=O)c2ccc(N)cc2)nc(C)c1Br`: greater than 46 µM.
`CN(C)C(=N)NC(=N)N.Cl` displayed an IC50 greater than 46 µM.
The value for `CC(C)Cn1cnc2c(N)nc3ccccc3c21` was greater than 46 µM.
